For assay [1], the system named is ERK. Description: competition experiments, ERK phosphorylation with BDNF plus d-bdnf in differentiated SH-SY5Y cells. The conditions noted are these: BDNF 1 nM + d-bdnf 10 nM-100 µM, or d-bdnf 10 µM + BDNF 0.074 nM–10 nM; 10 min; 2 independent replicas. The assay is classed as cell-based, human. From the text: The possibility of mimicking the function of the full-length BDNF protein by using a linear peptide fragment encompassing the first 12 amino acids of the mature NT N-terminal was already postulated.[31] Here, we named this sequence as m-bdnf (Figure 1A) and performed a systematic comparison between the performance of the full-length human BDNF produced recombinantly in Escherichia coli([32]) and (i) m-bdnf, (ii) a dimeric peptide displaying two copies of the m-bdnf sequence covalently bound by a disulfide bridge (d-bdnf), and (iii) a monomeric peptide displaying the scrambled sequence of m-bdnf (s-bdnf). We first investigated the ability of these peptides to activate the TrkB receptor. […] Specifically, an EC50 concentration of BDNF (1 nM) or of d-bdnf (10 μM) was used in combination with the increasing concentration of d-bdnf and BDNF, respectively, and the increase of ERK phosphorylation was assessed. […] Of note, we also performed a non-permeabilizing immunofluorescence analysis to quantify the membrane-bound BDNF in differentiated SH-SY5Y cells in the absence or presence of BDNF and d-bdnf (Figure S1C,D). […] The same increment was not observed upon treatment with the d-bdnf peptide, while instead we measured a slight (∼18%) decrease of the signal possibly due to the ability of the peptide to displace endogenous BDNF at the tested dose (10 μM). […]

The subject of assay [2] is SH-SY5Y cells. As to the kind of experiment: RT-PCR gene expression analysis of differentiated SH-SY5Y cells. The conditions noted are these: RT-PCR mRNA, four replicas, two independent experiments. The format is cell-based, human. From the text: Figure 4 Neuronal differentiation and polarization genes stimulated by BDNF and d-bdnf mimetic peptide. (A) Schematic timeline of the experiment. As non-differentiated control, we used untreated cells seeded at the same density (non-diff ctrl, white bars). As a control for the expression of neuronal polarization genes, we used cells stopped at d5 (non-pol ctrl). (B) RT-PCR analysis of the mRNA expression levels of neuronal differentiation markers (NTRK2, LAMC1, and NEFM) and polarization markers (GAP43, MAP2, and MAPT) induced by BDNF and d-bdnf with respect to non-diff and non-pol ctrl samples, respectively. Data are expressed as fold changes with respect to the average ctrl value set to 1, and the mean ± SEM of four replicas from two independent experiments are reported (****p < 0.0001, ***p < 0.001, **p < 0.01, and *p < 0.05 according to the one-way ANOVA with Bonferroni’s multiple comparison test).
Figure 6 Modulation of d-bdnf neurotrophic activity by Zn^2+ ion. (A) Neurite outgrowth assay for d-bdnf-Zn^2+ conjugate. The ctrl and d-bdnf samples are the same as in Figure 2C, here reported as a reference. Data represent the mean ± SD of fields pooled from two independent replicas. (****p < 0.0001, according to the one-way ANOVA with Dunnett’s multiple comparison test). (B) RT-PCR analysis of the mRNA expression levels of the marker genes (as described in Figure 3B). Data are expressed as fold changes with respect to the average ctrl value set to 1, and the mean ± SEM of four replicas from two independent experiments are reported (**p < 0.01, *p < 0.05, vs ctrl; #p < 0.05 vs d-bdnf, according to one-way ANOVA with Bonferroni’s multiple comparison test). […]
RT-PCR analysis of SH-SY5Y differentiation
At the end of each differentiation treatment and relative controls, cells were col lected, and total RNA was extracted using the Rneasy Mini Kit (Qiagen). The RNA concentration and purity were checked at the Nanodrop instrument (Thermofisher). cDNA synthesis was performed with 1 µg of RNA using i-Script cDNA synthesis kit (BioRad). Real-time PCR reactions consisted of 10 µL of SsoAdvanced™ Universal SYBR® Green Supermix - Bio-Rad, 0.5 µL of both 10 µM forward and reverse primers, 5 µL of cDNA (50 ng), and 4 µL of H2O. The primer sequences and the product size […]
HPRT1 and NEFM primers were purchased by Biorad (qHsaCID0016375 and qHsaCED0043021, Bio-Rad). The mRNA levels for each sample were normalized against GAPDH and HPRT1 mRNA levels, and the relative expression was calculated by using the methods of the […]

With “HSDPARRGELSVC-C-VSLEGRRAPDSH (disulfide) [d-bdnf]”, the “competition / additivity on ERK phosphorylation” value in assay [1] is recorded as “neither antagonist nor additive effects”. Moreover, the MAPT expression entry in assay [2] (axon marker, d-bdnf vs BDNF) is “to a similar extent to BDNF”. Further, the MAP2 expression result in assay [2] (dendrite marker, d-bdnf vs BDNF) is reported as “to a similar extent to BDNF”. In addition, in assay [2] (d-bdnf vs BDNF), the LAMC1 expression entry is “to promote, to a similar extent of BDNF, the expression of NTRK2 and LAMC1 genes”; the NTRK2 expression result was “to promote, to a similar extent of BDNF, the expression of NTRK2 and LAMC1 genes”. For the same substance, in assay [2], the GAP43 gene expression result is recorded as “not significantly increased by either the d-bdnf doses tested” and the NEFM gene expression result is on record as “significantly increased only at the highest d-bdnf dose (10 μM)”.
